This is an account of results in ChEMBL document CHEMBL5104148, “Discovery of derivatives from Spartina alterniflora-sourced moiety as xanthine oxidase inhibitors to lower uric acid” (Bioorg Med Chem Lett, 2022).

Data set [1] can be described thus: Cytotoxicity against human L02 cells assessed as reduction in cell viability incubated for 24 hrs by MTT assay. It counts as toxicity, cell-based. A general note: Tetrazolium dyes change colour on reduction, which living cells bring about.
Data set [2] relates to Mus musculus. Briefly: Anti-hyperuricemic activity against hypoxanthine and oteracil potassium induced hyperuricemia in Kunming mouse model assessed as alanine aminotransferase level at 5 mg/kg, IG administered daily (reference value: 28.05 +/- 8.478 U/L). It counts as functional.
Data set [3] relates to Mus musculus. The data set can be described thus: Anti-hyperuricemic activity against hypoxanthine and oteracil potassium induced hyperuricemia in Kunming mouse model assessed as blood urea nitrogen level at 5 mg/kg, IG administered daily (reference value: 53.09 +/- 1.937 mg/dl). It counts as functional.
The test system of data set [4] is Mus musculus. The data set can be described thus: Anti-hyperuricemic activity against hypoxanthine and oteracil potassium induced hyperuricemia in Kunming mouse model assessed as total bilirubin level at 5 mg/kg, IG administered daily (reference value: 12.05 +/- 4.92 uM). The data set is classed as functional.
For data set [5], the system named is Mus musculus. The data set can be described thus: Anti-hyperuricemic activity against hypoxanthine and oteracil potassium induced hyperuricemia in Kunming mouse model assessed as creatinine level at 5 mg/kg, IG administered daily (reference value: 59.12 +/- 7.198 uM). It counts as functional.
Data set [6] deals with Mus musculus. The data set can be described thus: Anti-hyperuricemic activity against hypoxanthine and oteracil potassium induced hyperuricemia in Kunming mouse model assessed as uric acid level at 5 mg/kg, IG administered daily (reference value: 631.6 +/- 103.1 uM). It counts as functional.
Data set [7] in a line: Tmax in rat at 1 mg/kg, iv measured after 24 hrs. It counts as ADME, organism-based. As to conditions: in vivo.
Data set [8] is described as follows: Cmax in rat at 3 mg/kg, po measured after 24 hrs. The data set is classed as ADME, organism-based. Details: time 24 hrs, dose 3 mg/kg, route po. As to conditions: in vivo.
Data set [9] can be described thus: Volume of distribution in rat at 1 mg/kg, iv measured after 24 hrs. The data set is classed as ADME, organism-based. As to conditions: in vivo.
A short description of data set [10]: Clearance in rat at 1 mg/kg, iv measured after 24 hrs. The data set is classed as ADME, organism-based. As to conditions: in vivo.
The nature of data set [11]: AUC(0 to infinity) in rat at 1 mg/kg, iv measured after 24 hrs. On the set-up: dose 1 mg/kg, time 24 hrs, route iv. As to conditions: in vivo. It counts as ADME, organism-based.
Data set [12] in a line: Oral bioavailability in rat at 3 mg/kg measured after 24 hrs. It counts as ADME, organism-based. As to conditions: in vivo.
Data set [13] can be described thus: AUC(0 to t) in rat at 1 mg/kg, iv measured after 24 hrs. On the set-up: dose 1 mg/kg, time 24 hrs, route iv. As to conditions: in vivo. It counts as ADME, organism-based.
A short description of data set [14]: AUC(0 to t) in rat at 3 mg/kg, po measured after 24 hrs. It counts as ADME, organism-based. Details: dose 3 mg/kg, time 24 hrs, route po. As to conditions: in vivo.
Data set [15] can be described thus: Elimination half life in rat at 1 mg/kg, iv measured after 24 hrs. It counts as ADME, organism-based. As to conditions: in vivo, read-out: beta t1/2 (converted).
Data set [16] is described as follows: Cmax in rat at 1 mg/kg, iv measured after 24 hrs. It counts as ADME, organism-based. On the set-up: time 24 hrs, dose 1 mg/kg, route iv. As to conditions: in vivo.
Data set [17] in a line: Elimination half life in rat at 3 mg/kg, po measured after 24 hrs. It counts as ADME, organism-based. As to conditions: in vivo, read-out: beta t1/2 (converted).
Data set [18] can be described thus: AUC(0 to infinity) in rat at 3 mg/kg, po measured after 24 hrs. The data set is classed as ADME, organism-based. On the set-up: dose 3 mg/kg, time 24 hrs, route po. As to conditions: in vivo.
Data set [19] in a line: Tmax in rat at 3 mg/kg, po measured after 24 hrs. The data set is classed as ADME, organism-based. As to conditions: in vivo.
Data set [20] deals with Xanthine dehydrogenase/oxidase (Homo sapiens, UniProt P47989). The data set can be described thus: Inhibition of xanthine oxidase (unknown origin) at 10 uM relative to control.
Xanthine dehydrogenase/oxidase, sequence (P47989 whole entry): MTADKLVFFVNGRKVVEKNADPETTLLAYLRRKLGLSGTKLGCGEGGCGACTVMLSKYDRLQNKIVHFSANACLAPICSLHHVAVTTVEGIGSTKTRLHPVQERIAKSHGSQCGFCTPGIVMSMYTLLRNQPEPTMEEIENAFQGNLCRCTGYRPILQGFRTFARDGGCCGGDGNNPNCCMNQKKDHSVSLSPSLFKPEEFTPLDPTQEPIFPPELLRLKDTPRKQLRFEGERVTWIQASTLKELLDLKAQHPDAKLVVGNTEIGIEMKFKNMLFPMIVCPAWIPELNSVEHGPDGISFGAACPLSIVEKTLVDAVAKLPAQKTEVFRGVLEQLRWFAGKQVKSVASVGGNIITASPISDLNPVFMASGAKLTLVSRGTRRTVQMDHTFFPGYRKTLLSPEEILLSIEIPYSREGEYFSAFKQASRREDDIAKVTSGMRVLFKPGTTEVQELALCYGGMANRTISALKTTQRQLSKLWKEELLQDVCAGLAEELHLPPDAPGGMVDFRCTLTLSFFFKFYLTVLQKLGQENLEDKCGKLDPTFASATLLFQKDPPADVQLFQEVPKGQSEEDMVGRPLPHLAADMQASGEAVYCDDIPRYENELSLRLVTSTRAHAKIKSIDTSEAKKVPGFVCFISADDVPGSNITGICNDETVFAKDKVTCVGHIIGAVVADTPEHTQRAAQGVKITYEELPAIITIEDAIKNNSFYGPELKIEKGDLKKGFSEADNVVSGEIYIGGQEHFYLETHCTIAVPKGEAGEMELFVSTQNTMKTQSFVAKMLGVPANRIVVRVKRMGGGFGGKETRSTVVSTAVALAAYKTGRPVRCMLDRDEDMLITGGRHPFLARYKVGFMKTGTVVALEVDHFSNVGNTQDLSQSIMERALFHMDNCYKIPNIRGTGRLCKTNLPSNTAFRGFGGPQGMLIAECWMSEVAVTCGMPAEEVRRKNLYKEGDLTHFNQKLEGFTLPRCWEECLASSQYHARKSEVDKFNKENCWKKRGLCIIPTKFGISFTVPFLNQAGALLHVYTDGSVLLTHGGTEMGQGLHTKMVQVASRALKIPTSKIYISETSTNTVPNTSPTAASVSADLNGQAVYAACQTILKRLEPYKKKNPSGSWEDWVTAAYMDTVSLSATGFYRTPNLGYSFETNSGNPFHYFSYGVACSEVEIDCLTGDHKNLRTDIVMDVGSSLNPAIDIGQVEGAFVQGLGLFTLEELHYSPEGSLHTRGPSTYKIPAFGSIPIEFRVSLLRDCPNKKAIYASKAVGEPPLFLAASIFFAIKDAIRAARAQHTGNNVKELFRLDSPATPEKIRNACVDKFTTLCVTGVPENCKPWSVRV

Take `CCCCS(=O)(=O)Oc1ccc(/C=C/C(=O)Nc2ccccc2C)cc1OC`: the CC50 at 24 h in [1] was 56.1 µM.

Regarding `CCCCS(=O)(=O)Oc1ccc(/C=C/C(=O)Nc2ccc(Cl)cc2)cc1OC`, in data set [1], the CC50 at 24 h amounted to 81.2 µM.

With `CCCCS(=O)(=O)Oc1ccc(/C=C/C(=O)Nc2cccc(C)c2)cc1OC`, the CC50 at 24 h in data set [1] came to 33.6 µM.

Turning to `COc1cc(/C=C/C(=O)Nc2cccc(C)c2)ccc1OS(=O)(=O)c1ccc(Cl)cc1`, the CC50 at 24 h in data set [1] is 73.5 µM. Also, the Activity in data set [2] was 25.21 U/L; in [3], 33.45 mg/dL; in [4], 8.296 µM; in data set [5] it was 45.88 µM; in data set [6], 552.9 µM.

`CCCCS(=O)(=O)Oc1ccc(/C=C/C(=O)OCCC)cc1OC`: the CC50 at 24 h in [1] was determined as 61.8 µM.

With `CCCCS(=O)(=O)Oc1ccc(/C=C/C(=O)Nc2ccc(C)cc2)cc1OC`, in data set [1], the CC50 at 24 h is 26.8 µM.

Consider `CCCCS(=O)(=O)Oc1ccc(/C=C/C(=O)Nc2ccccc2I)cc1OC`, for which the cytotoxic concentration (CC50) at 24 h in [1] amounted to 24.5 µM.

With `CCCCOC(=O)/C=C/c1ccc(OS(=O)(=O)CCCC)c(OC)c1`, in data set [1], the CC50 at 24 h was found to be 115 µM.

For the molecule `COc1cc(/C=C/C(=O)OCC(C)C)ccc1OS(=O)(=O)c1ccc(Cl)cc1`, the CC50 at 24 h in [1] was 102 µM.

Take `CCOC(=O)/C=C/c1ccc(OS(=O)(=O)c2ccc(Cl)cc2)c(OC)c1`: in data set [1], the CC50 at 24 h is 137 µM.

As for `COC(=O)/C=C/c1ccc(OS(=O)(=O)c2ccc(Cl)cc2)c(OC)c1`, the CC50 at 24 h in data set [1] is 99.5 µM.

As for `CCCOC(=O)/C=C/c1ccc(OS(=O)(=O)c2ccc(Cl)cc2)c(OC)c1`, the CC50 at 24 h in [1] was determined as 150 µM.

Turning to `CCCCOC(=O)/C=C/c1ccc(OS(=O)(=O)c2ccc(Cl)cc2)c(OC)c1`, in [1], the CC50 at 24 h turned out to be 14 µM.

As to `COc1cc(/C=C/C(=O)Nc2ccc(I)cc2)ccc1OS(=O)(=O)c1ccc(Cl)cc1`, in data set [1], the CC50 at 24 h turned out to be 39.4 µM.

Take `CCCCS(=O)(=O)Oc1ccc(/C=C/C(=O)Nc2ccccc2)cc1OC`: the CC50 at 24 h in data set [1] was 3.32 µM.

For the molecule `CCCCS(=O)(=O)Oc1ccc(/C=C/C(=O)OCC(C)C)cc1OC`, the CC50 at 24 h in [1] worked out at 63.8 µM.

For `CCCCS(=O)(=O)Oc1ccc(/C=C/C(=O)Nc2ccccc2Br)cc1OC`, the CC50 at 24 h in data set [1] was found to be 5 µM.

For the molecule `CCCCS(=O)(=O)Oc1ccc(/C=C/C(=O)OCC)cc1OC`, the Tmax was 6 min in data set [7] and 8.34 min in [19]. The Cmax in data set [8] came out at 1030 ng/mL; in [16], 1930 ng/mL. Moreover, in data set [9], the volume of distribution (Vd) came to 0.996 L/kg. The CC50 at 24 h in data set [1] was 14.4 µM. The Activity came out at 29.23 U/L in data set [2]; 30.48 mg/dL in [3]; 8.557 µM in [4]; 34.38 µM in [5]; 295 µM in data set [6]. Further, the clearance in data set [10] was 19.8 mL/min/kg. Also, the AUC(0-inf) came to 851 ng·h/mL in [11] and 1640 ng·h/mL in data set [18]. Besides, the bioavailability in [12] is 63.7%. The AUC(0-t) at 24 h in [13] amounted to 847 ng·h/mL; in [14], 1620 ng·h/mL. The results for the half-life in [15] and in data set [17] were 34.2 min and 79.2 min, respectively.

With `CCCCS(=O)(=O)Oc1ccc(/C=C/C(=O)Nc2ccc(CC)cc2)cc1OC`, the CC50 at 24 h in data set [1] amounted to 89 µM.

As to `CCCCS(=O)(=O)Oc1ccc(/C=C/C(=O)OC)cc1OC`, the CC50 at 24 h in [1] amounted to 208 µM.

For `Oc1ncnc2[nH]ncc12` [ALLOPURINOL], the CC50 at 24 h in data set [1] was 6.84 µM. Besides, the Activity is 32.11 U/L in [2]; 43.64 mg/dL in [3]; 10.36 µM in data set [4]; 71.97 µM in data set [5]; 309.2 µM in data set [6]. This molecule also registered an inhibition at 10 µM in data set [20] of 45.6%.

The CC50 is the concentration that lowers cell viability or growth by half. Broadly, the Tmax is the time at which the peak concentration occurs. For orientation: Cmax means the highest concentration seen after dosing. Broadly, the Vd is a proportionality between amount in the body and measured concentration, not a real space. Higher therefore signals extensive tissue distribution. One may read the clearance as the rate of elimination divided by the concentration. High values mean efficient removal, low ones inefficient removal. The AUC(0-inf) is the area under the concentration-time curve extrapolated to infinity. What is called bioavailability is dose-corrected exposure relative to a reference, in per cent. The low end stands for little systemic uptake, the high end for much systemic uptake. By AUC(0-t) is commonly meant the area under the concentration-time curve up to a stated or last time point. The inhibition is the change of the read-out against control, counted positive when it falls. A low value points to a response near the control.
